The text below walks through data of patent publication US9884063B2, “Amido-substituted azole compounds” (Bayer Pharma Aktiengesellschaft, priority 2014, dated 2018).

In general, IC50 refers to the concentration at which inhibition is half-maximal. Higher therefore signals weaker potency in that assay.

Experiment [1] has as its system wildtype Wnt signaling cascade. Nature of the experiment: HEK293 TOP Assay (Super TopFlash luciferase reporter, Wnt-3a stimulated). It is filed as cell-based. The settings on record: Homo sapiens, HEK293, 16 h. The method, boiled down: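 Compounds (50 μM down to 15 nM, 3.16-fold steps, in CAFTY buffer pH 7.4, 2 mM Ca2+, 0.01% BSA) tested in parallel on TOP and FOP HEK293 reporter lines to define selective wildtype Wnt inhibition. Pathway driven by recombinant human Wnt-3a applied at 2500–5 ng/ml in two-fold dilutions.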
A general note: In a reporter assay the amount or activity of a reporter protein is the signal.

The next experiment deals with T1, TNKS1 (Homo sapiens, UniProt O95271).
T1 sequence (O95271 1-1327): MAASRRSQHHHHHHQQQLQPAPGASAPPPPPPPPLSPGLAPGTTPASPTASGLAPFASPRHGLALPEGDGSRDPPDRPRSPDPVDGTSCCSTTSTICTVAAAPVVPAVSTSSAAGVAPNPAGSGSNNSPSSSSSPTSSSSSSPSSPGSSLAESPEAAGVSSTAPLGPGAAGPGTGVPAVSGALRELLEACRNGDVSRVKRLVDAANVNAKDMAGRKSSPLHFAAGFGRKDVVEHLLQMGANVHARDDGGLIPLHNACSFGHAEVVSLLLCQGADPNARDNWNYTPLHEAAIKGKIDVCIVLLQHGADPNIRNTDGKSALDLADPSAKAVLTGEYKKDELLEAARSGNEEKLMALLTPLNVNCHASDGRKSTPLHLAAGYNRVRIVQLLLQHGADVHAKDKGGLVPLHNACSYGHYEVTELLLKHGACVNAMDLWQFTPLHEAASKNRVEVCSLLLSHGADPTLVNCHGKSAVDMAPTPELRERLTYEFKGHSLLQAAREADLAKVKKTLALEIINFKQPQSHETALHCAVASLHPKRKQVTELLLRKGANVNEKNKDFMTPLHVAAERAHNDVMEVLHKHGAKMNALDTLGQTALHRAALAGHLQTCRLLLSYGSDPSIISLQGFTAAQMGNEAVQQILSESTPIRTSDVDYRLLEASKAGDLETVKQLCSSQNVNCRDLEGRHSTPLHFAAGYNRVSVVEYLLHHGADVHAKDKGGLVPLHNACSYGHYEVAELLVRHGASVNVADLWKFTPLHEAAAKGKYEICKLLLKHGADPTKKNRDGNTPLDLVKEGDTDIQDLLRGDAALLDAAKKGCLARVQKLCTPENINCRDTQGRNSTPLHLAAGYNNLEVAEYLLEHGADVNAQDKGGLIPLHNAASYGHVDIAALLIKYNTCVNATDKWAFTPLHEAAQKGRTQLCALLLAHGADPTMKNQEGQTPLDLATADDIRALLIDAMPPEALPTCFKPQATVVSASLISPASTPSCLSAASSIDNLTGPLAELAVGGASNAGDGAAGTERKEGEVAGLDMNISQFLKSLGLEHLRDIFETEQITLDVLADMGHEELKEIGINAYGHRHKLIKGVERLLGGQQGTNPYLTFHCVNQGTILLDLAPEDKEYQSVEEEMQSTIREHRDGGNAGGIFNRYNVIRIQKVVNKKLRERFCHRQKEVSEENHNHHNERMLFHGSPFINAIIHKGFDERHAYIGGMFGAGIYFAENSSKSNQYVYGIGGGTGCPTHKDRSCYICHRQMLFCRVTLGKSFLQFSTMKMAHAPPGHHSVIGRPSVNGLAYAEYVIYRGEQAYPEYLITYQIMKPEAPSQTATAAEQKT
Nature of the experiment: Modified TNKS1 Assay 2 (auto-parsylation, [3H]-NAD+ SPA). The class given is biochemical. Particulars: 6 nM TNKS1, 96 well.

Setting [2] is: HEK293 TOP reporter cell line, Wnt-3a at EC50, 16 hours incubation, compound dilution series 50 μM to 15 nM.
The mark [3] stands for this setting: HEK293 TOP reporter cells, Wnt3a at EC50, 16 hours, luciferase.

Take `C[C@@H]1CCCCN1CCNC(=O)c1[nH]cnc1C(=O)Nc1ccc(NC(=O)c2ccc(F)cc2Cl)cc1` [Example 267, N^4-{4-[(2-chloro-4-fluorobenzoyl)amino]phenyl}-N^5-{2-[(2R)-2-methylpiperidin-1-yl]ethyl}-1H-imidazole-4,5-dicarboxamide]: the IC50 was found to be 20 nM in experiment [1] (setting [2]) and 7 nM at TNKS1.
Regarding `C[C@@H]1CCCN(CCNC(=O)c2[nH]cnc2C(=O)Nc2ccc(NC(=O)c3ccc(F)cc3Cl)cc2)C1` [Example 278, N^4-{4-[(2-chloro-4-fluorobenzoyl)amino]phenyl}-N^5-{2-[(3R)-3-methylpiperidin-1-yl]ethyl}-1H-imidazole-4,5-dicarboxamide], the IC50 in experiment [1] (setting [2]) came to 90 nM; on TNKS1 it was 5 nM.
With `O=C(Nc1ccc(NC(=O)c2[nH]cnc2C(=O)NCCC2CCCC2)cc1)c1ccc(F)cc1Cl` [Example 42, N^5-{4-[(2-chloro-4-fluorobenzoyl)amino]phenyl}-N^4-(2-cyclopentylethyl)-1H-imidazole-4,5-dicarboxamide], the IC50 in experiment [1] (setting [2]) is 2300 nM; against TNKS1, greater than 10000 nM.
In the case of `CN1CC2(C1)CN(C(=O)c1nc[nH]c1C(=O)Nc1ccc(NC(=O)c3ccc(F)cc3Cl)cc1)C2` [Example 46, N-{4-[(2-chloro-4-fluorobenzoyl)amino]phenyl}-4-[(6-methyl-2,6-diazaspiro[3.3]hept-2-yl)carbonyl]-1H-imidazole-5-carboxamide], the IC50 stood at 290 nM in experiment [1] (setting [2]) and 680 nM against TNKS1.
The corresponding values for `CNC(=O)c1nc[nH]c1C(=O)Nc1ccc(NC(=O)c2c(F)ccc(F)c2Cl)cc1` [Example 374, N^5-{4-[(2-chloro-3,6-difluorobenzoyl)amino]phenyl}-N^4-methyl-1H-imidazole-4,5-dicarboxamide] are 1800 nM and 1600 nM.
Take `CCc1nc(C(=O)Nc2ccc(NC(=O)c3ccc(F)cc3Cl)cc2)c(C(=O)NC)[nH]1` [Example 68, N^4-{4-[(2-chloro-4-fluorobenzoyl)amino]phenyl}-2-ethyl-N^5-methyl-1H-imidazole-4,5-dicarboxamide]: the IC50 in experiment [1] (setting [2]) is 2150 nM; on TNKS1 it was greater than 10000 nM.
As for `O=C(Nc1ccc(NC(=O)c2ocnc2C(=O)NCCN2CCCCC2)cc1)c1ccc(F)cc1Cl` [Example 303, N^5-{4-[(2-chloro-4-fluorobenzoyl)amino]phenyl}-N^4-[2-(piperidin-1-yl)ethyl]-1,3-oxazole-4,5-dicarboxamide], the IC50 in experiment [1] (setting [2]) amounted to 140 nM; on TNKS1 it was 8 nM.
The corresponding values for `CNC(=O)c1nc[nH]c1C(=O)Nc1ccc(NC(=O)c2cccc(F)c2OC)cc1` [Example 367, N^5-{4-[(3-fluoro-2-methoxybenzoyl)amino]phenyl}-N^4-methyl-1H-imidazole-4,5-dicarboxamide] are 12400 nM and greater than 10000 nM.
For `O=C(Nc1ccc(NC(=O)c2[nH]cnc2C(=O)NCCN2CCCCC2)cc1)c1ccc(F)cc1Cl` [Example 32, N^4-{4-[(2-chloro-4-fluorobenzoyl)amino]phenyl}-N^5-[2-(piperidin-1-yl)ethyl]-1H-imidazole-4,5-dicarboxamide], the values for the IC50 (in experiment [1] (setting [2]); in experiment [1] (setting [3]); at TNKS1) were 20 nM, 20 nM and 9 nM, respectively.
For the compound `CN(C)CCNC(=O)c1nc[nH]c1C(=O)Nc1ccc(NC(=O)c2ccc(F)cc2)c(F)c1` [Example 77, N^4-[2-(dimethylamino)ethyl]-N^5-{3-fluoro-4-[(4-fluorobenzoyl)amino]phenyl}-1H-imidazole-4,5-dicarboxamide], the figures for the IC50 (in experiment [1] (setting [2]); against TNKS1) were 4400 nM and 990 nM, respectively.
As for `CNC(=O)c1nc[nH]c1C(=O)Nc1ccc(NC(=O)c2c(Cl)cccc2C(F)(F)F)cc1` [Example 36, N^5-(4-{[2-chloro-6-(trifluoromethyl)benzoyl]amino}phenyl)-N^4-methyl-1H-imidazole-4,5-dicarboxamide], the IC50 is 6150 nM in experiment [1] (setting [2]), 6150 nM in experiment [1] (setting [3]) and greater than 10000 nM against TNKS1.
On to `CC1(C)CC(NC(=O)c2nc[nH]c2C(=O)Nc2ccc(NC(=O)c3ccc(F)cc3Cl)cc2)CCO1` (centres unmarked) [Example 391, N^5-{4-[(2-chloro-4-fluorobenzoyl)amino]phenyl}-N^4-(2,2-dimethyltetrahydro-2H-pyran-4-yl)-1H-imidazole-4,5-dicarboxamide], for which the IC50 in experiment [1] (setting [2]) came out at 670 nM; at TNKS1, 400 nM.
Consider `CNC(=O)c1nc[nH]c1C(=O)Nc1ccc(NC(=O)c2ccc(F)cc2Br)cc1` [Example 56, N^5-{4-[(2-bromo-4-fluorobenzoyl)amino]phenyl}-N^4-methyl-1H-imidazole-4,5-dicarboxamide], for which the IC50 in experiment [1] (setting [2]) worked out at 120 nM; at TNKS1, 530 nM.
Take `O=C(Nc1ccc(NC(=O)c2[nH]cnc2C(=O)N2CCOCC2)cc1)c1ccc(F)cc1Cl` [Example 29, N-{4-[(2-chloro-4-fluorobenzoyl)amino]phenyl}-5-(morpholin-4-ylcarbonyl)-1H-imidazole-4-carboxamide]: the IC50 stood at 3930 nM in experiment [1] (setting [2]), 3920 nM in experiment [1] (setting [3]) and 2100 nM against TNKS1.
As to `O=C(Nc1ccc(NC(=O)c2[nH]cnc2C(=O)NCCC2CC2)cc1)c1ccc(F)cc1Cl` [Example 43, N^5-{4-[(2-chloro-4-fluorobenzoyl)amino]phenyl}-N^4-(2-cyclopropylethyl)-1H-imidazole-4,5-dicarboxamide], the results for the half-inhibitory concentration (IC50) (in experiment [1] (setting [2]); against TNKS1) were 530 nM and 9200 nM, respectively.
In the case of `CNC(=O)c1nc[nH]c1C(=O)Nc1ccc(NC(=O)c2ccc(S(C)(=O)=O)cc2Cl)cc1` [Example 55, N^5-(4-{[2-chloro-4-(methylsulfonyl)benzoyl]amino}phenyl)-N^4-methyl-1H-imidazole-4,5-dicarboxamide], the IC50 in experiment [1] (setting [2]) came out at 270 nM; against TNKS1, 120 nM.
Consider `CN(C)CCNC(=O)c1nc[nH]c1C(=O)Nc1ccc(NC(=O)c2ccccc2Cl)c(F)c1` [Example 81, N^5-{4-[(2-chlorobenzoyl)amino]-3-fluorophenyl}-N^4-[2-(dimethylamino)ethyl]-1H-imidazole-4,5-dicarboxamide], for which the IC50 in experiment [1] (setting [2]) was 660 nM; on TNKS1, 60 nM.
On to `CNC(=O)c1nc[nH]c1C(=O)Nc1ccc(NC(=O)c2cc(OC(F)(F)F)ccc2Br)cc1` [Example 64, N^5-(4-{[2-bromo-5-(trifluoromethoxy)benzoyl]amino}phenyl)-N^4-methyl-1H-imidazole-4,5-dicarboxamide], for which the values for the IC50 (in experiment [1] (setting [2]); at TNKS1) were 1450 nM and greater than 10000 nM, respectively.
The corresponding values for `CNC(=O)c1nc[nH]c1C(=O)Nc1ccc(NC(=O)c2ccc(F)c(Cl)c2F)cc1` [Example 359, N^5-{4-[(3-chloro-2,4-difluorobenzoyl)amino]phenyl}-N^4-methyl-1H-imidazole-4,5-dicarboxamide] are 8600 nM and greater than 10000 nM.
`O=C(Nc1ccc(NC(=O)c2[nH]cnc2C(=O)NCCc2ccncc2)cc1)c1ccc(F)cc1Cl` [Example 394, N^5-{4-[(2-chloro-4-fluorobenzoyl)amino]phenyl}-N^4-[2-(pyridin-4-yl)ethyl]-1H-imidazole-4,5-dicarboxamide]: the results for the IC50 (in experiment [1] (setting [2]); on TNKS1) were 700 nM and 50 nM, respectively.
As for `CNC(=O)c1nc[nH]c1C(=O)Nc1ccc(NC(=O)c2cccc(Cl)n2)cc1` [Example 353, N^5-(4-{[(6-chloropyridin-2-yl)carbonyl]amino}phenyl)-N^4-methyl-1H-imidazole-4,5-dicarboxamide], the IC50 was 50000 nM in experiment [1] (setting [2]) and greater than 10000 nM on TNKS1.
`CNC(=O)c1nc[nH]c1C(=O)Nc1ccc(NC(=O)c2cc(C#N)ccc2F)cc1` [Example 349, N^5-{4-[(5-cyano-2-fluorobenzoyl)amino]phenyl}-N^4-methyl-1H-imidazole-4,5-dicarboxamide]: the results for the IC50 (in experiment [1] (setting [2]); against TNKS1) were 720 nM and 2700 nM, respectively.
